Assay results from ChEMBL document CHEMBL1201862, “PubChem BioAssay data set” (2004).
The source made the active and inactive calls.

Legend:
[1] = target: Melanin-concentrating hormone receptor 1 (Homo sapiens, UniProt Q99705); test: Fluorescence-based counterscreen for antagonists of the G-protein coupled receptor 7 (GPR7): cell-based high throughput dose response assay to identify antagonists of the melanin-concentrating hormone receptor 1 (MCHR1).; type: functional
[2] = target: T1, Rac GTPase-activating protein 1 (Homo sapiens, UniProt Q9H0H5); test: MgcRacGAP GTPase-activating activity inhibitors, confirmation, biochemical, ADP Hunter fluorescence, primary and confirmatory (AID 624330); type: functional
T1 sequence (Q9H0H5 whole entry): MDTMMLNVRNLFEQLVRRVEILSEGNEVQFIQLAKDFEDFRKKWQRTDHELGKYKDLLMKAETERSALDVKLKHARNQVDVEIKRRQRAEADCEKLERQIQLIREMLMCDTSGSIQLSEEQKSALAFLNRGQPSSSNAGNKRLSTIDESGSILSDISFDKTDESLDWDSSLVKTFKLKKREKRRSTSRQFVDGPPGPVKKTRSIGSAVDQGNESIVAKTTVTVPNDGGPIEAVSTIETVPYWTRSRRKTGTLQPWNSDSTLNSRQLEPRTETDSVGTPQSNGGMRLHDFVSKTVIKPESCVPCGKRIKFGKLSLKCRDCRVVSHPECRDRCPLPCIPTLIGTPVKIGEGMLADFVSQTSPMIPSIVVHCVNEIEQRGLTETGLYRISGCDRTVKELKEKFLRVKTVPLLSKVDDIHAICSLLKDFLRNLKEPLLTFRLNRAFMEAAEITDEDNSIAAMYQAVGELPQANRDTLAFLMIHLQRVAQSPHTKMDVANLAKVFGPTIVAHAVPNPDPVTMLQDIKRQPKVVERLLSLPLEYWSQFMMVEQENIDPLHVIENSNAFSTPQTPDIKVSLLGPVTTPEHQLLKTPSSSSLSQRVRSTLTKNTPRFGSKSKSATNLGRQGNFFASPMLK

[3] = target: Neuropeptides B/W receptor type 1 (Homo sapiens, UniProt P48145); test: Fluorescence-based dose response cell-based high throughput screening assay to identify antagonists of the G-protein coupled receptor 7 (GPR7). [Related pubchem assays: 1952 (Screening assay (GPR7 antagonists).), 1880 (Summary AID.)]; type: functional
Chain of Neuropeptides B/W receptor type 1 (P48145 whole entry): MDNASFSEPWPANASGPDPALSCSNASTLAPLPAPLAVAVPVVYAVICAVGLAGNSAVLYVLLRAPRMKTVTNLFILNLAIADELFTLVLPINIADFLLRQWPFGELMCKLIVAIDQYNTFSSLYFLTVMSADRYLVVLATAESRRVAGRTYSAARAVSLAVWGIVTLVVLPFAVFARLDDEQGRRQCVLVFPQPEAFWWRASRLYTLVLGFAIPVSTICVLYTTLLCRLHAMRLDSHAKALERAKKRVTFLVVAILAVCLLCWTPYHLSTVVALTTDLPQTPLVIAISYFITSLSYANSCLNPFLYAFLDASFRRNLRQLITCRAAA

[4] = A cytotoxicity screen of small molecule inhibitors of the PhoP region in Salmonella typhi identified in the primary screen. [Related pubchem assays: 1850, 1864, 1985 ]; type: functional
[5] = target: T2, Alkaline phosphatase, tissue-nonspecific isozyme (Homo sapiens, UniProt P05186)
T2 sequence (P05186 whole entry): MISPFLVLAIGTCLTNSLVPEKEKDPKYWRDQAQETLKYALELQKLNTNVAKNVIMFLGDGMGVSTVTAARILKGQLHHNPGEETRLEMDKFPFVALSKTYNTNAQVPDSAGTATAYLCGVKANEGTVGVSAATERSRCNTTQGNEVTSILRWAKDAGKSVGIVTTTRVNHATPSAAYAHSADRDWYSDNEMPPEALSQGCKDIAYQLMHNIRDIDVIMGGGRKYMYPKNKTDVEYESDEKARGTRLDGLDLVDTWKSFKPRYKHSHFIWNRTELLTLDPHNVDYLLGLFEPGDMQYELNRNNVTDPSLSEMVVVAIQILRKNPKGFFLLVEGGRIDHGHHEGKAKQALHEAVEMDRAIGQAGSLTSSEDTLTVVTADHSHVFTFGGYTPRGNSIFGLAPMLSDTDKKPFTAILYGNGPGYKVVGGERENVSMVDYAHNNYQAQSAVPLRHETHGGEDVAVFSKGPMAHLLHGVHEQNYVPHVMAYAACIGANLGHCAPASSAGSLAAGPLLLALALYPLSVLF

[6] = target: Peroxisome proliferator-activated receptor gamma/Nuclear receptor corepressor 2 (Homo sapiens, UniProt P37231+Q9Y618); type: functional
[7] = target: Peroxisome proliferator-activated receptor gamma/Nuclear receptor coactivator 3 (Homo sapiens, UniProt P37231); test: TR-FRET dose response biochemical High Throughput Screening assay for agonists of the steroid receptor coactivator 3 (SRC-3) recruitment by the peroxisome proliferator-activated receptor gamma (PPAR gamma): non-selective agonists. [Related pubchem assays: 1301 (Confirmation screen.), 1048 (Primary screen.)]; type: functional
[8] = target: Peroxisome proliferator-activated receptor gamma/Nuclear receptor coactivator 2 (Homo sapiens, UniProt P37231); test: (§1) TR-FRET dose response biochemical High Throughput Screening assay for agonists of the steroid receptor coactivator 2 (SRC-2) recruitment by the peroxisome proliferator-activated receptor gamma (PPAR gamma): non-selective agonists. [Related pubchem assays: 1297, 1032 ]; type: functional
Chain of Peroxisome proliferator-activated receptor gamma/Nuclear receptor coactivator 2 (P37231 whole entry): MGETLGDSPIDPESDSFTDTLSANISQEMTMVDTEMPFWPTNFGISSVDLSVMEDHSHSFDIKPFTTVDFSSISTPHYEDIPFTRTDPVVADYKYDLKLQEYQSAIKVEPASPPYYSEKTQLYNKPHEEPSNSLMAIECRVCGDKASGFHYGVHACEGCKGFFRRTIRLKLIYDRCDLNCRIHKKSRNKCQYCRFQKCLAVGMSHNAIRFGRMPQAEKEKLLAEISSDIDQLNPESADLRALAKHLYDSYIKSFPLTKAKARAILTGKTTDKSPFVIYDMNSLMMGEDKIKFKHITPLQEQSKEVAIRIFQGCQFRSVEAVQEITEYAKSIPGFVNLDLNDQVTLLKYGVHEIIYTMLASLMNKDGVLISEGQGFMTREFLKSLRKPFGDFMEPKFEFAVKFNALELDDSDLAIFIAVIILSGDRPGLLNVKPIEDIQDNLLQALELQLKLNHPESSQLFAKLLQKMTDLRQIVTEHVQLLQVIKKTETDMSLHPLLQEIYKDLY
Chain of Peroxisome proliferator-activated receptor gamma/Nuclear receptor coactivator 2 (Q15596 whole entry, further chain): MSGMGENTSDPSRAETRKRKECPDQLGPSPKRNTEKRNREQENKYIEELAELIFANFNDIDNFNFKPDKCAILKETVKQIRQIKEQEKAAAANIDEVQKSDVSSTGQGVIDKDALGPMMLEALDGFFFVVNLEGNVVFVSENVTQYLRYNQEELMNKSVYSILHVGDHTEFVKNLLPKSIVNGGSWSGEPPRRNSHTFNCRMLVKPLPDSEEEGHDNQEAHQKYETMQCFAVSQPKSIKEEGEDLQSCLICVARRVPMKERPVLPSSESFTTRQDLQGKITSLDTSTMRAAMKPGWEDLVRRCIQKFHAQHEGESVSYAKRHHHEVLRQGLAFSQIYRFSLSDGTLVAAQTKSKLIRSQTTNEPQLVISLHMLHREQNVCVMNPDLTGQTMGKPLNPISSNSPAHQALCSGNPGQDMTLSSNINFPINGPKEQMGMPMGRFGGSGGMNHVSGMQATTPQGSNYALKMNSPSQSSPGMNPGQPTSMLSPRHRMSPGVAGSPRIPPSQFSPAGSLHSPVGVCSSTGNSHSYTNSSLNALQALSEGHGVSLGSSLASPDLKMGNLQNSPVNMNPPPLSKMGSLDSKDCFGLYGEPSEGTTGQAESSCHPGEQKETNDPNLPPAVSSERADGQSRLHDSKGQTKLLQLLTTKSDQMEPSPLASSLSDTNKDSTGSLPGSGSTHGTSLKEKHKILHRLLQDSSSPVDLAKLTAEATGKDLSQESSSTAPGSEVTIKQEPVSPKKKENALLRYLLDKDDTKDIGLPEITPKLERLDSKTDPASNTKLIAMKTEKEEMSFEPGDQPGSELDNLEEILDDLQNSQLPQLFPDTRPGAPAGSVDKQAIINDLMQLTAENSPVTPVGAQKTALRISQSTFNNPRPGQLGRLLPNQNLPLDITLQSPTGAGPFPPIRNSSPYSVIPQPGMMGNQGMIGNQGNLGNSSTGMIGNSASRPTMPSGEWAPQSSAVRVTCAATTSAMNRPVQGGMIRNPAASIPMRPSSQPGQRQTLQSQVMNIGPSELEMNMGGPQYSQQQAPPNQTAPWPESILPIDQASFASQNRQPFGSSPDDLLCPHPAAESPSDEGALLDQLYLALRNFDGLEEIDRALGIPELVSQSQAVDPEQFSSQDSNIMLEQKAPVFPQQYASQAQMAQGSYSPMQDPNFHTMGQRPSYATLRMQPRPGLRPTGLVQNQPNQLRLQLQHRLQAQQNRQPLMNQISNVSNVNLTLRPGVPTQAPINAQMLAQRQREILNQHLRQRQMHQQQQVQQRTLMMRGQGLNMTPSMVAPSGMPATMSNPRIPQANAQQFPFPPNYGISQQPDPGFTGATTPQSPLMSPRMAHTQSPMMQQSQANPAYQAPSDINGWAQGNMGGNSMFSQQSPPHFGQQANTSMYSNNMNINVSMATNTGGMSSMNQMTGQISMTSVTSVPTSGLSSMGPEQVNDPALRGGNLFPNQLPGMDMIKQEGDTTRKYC

[9] = target: Photoreceptor-specific nuclear receptor (Homo sapiens, UniProt Q9Y5X4); type: functional;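 also: potency for compounds that break the NR2E3 corepressor complex and count as activators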
Chain of Photoreceptor-specific nuclear receptor (Q9Y5X4 whole entry): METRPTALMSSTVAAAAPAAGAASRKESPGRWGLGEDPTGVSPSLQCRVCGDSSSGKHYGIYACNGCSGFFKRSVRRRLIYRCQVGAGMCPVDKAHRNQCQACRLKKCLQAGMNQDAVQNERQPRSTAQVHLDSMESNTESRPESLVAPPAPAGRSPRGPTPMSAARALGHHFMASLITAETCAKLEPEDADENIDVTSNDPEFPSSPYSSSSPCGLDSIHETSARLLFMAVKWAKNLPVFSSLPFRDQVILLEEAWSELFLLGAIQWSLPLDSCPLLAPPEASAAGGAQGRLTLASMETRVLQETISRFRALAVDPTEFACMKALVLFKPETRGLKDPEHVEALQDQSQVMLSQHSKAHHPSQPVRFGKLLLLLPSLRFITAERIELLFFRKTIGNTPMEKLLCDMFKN

[10] = target: Peroxisome proliferator-activated receptor gamma/Nuclear receptor coactivator 1 (Homo sapiens, UniProt P37231); test: as §1, with “1 (SRC-1)” for “2 (SRC-2)”, “assays (depositor defined):AID1300, AID1808, AID504735, AID631]” for “assays: 1297, 1032 ]”; type: protein assay
[11] = target: T3, Dual specificity protein phosphatase 6 (Rattus norvegicus, UniProt Q64346); type: functional
T3 sequence (Q64346 whole entry): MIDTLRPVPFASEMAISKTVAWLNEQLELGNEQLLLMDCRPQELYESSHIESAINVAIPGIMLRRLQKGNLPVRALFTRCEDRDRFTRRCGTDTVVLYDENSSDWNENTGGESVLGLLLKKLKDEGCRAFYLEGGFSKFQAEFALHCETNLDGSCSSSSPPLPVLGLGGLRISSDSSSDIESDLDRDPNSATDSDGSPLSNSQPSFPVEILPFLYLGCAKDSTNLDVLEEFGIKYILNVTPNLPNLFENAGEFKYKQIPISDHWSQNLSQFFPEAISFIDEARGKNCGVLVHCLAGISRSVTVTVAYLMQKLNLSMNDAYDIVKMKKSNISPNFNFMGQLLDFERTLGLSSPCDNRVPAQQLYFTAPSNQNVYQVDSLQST

[12] = target: T3, Dual specificity protein phosphatase 6
[13] = target: Glyceraldehyde-3-phosphate dehydrogenase (Homo sapiens, UniProt P04406)
Chain of Glyceraldehyde-3-phosphate dehydrogenase (P04406 whole entry): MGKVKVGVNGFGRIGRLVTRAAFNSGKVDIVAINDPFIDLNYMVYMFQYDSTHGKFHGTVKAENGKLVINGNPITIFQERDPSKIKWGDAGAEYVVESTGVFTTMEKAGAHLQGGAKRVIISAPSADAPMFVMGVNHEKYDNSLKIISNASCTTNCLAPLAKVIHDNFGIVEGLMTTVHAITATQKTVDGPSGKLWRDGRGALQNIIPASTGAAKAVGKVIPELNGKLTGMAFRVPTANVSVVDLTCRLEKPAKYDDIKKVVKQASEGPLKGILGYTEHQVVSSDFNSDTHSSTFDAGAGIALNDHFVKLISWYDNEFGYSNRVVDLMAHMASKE

[14] = target: T4, Tyrosine-protein phosphatase non-receptor type 7 (Homo sapiens, UniProt P35236); type: functional
T4 sequence (P35236 whole entry): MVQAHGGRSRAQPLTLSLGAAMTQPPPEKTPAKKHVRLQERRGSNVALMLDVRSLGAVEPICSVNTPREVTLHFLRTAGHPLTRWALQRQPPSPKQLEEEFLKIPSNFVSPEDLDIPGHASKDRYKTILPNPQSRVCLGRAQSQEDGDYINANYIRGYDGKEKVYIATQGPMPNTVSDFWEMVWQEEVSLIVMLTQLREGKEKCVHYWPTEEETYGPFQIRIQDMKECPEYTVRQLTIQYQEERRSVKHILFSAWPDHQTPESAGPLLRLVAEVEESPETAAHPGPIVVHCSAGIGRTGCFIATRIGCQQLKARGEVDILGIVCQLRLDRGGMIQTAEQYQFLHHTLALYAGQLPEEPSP

[15] = tested on: Streptococcus sp. 'group A'; test: growth inhibition of control SK(-) GAS strain, dose response, counter-screen for streptokinase expression inhibitor project, luminescence, kanamycin, BacTiterGlo, confirmation (AID 1900); type: functional, organism-based
BJ [16] = test: cytotoxicity toward BJ-TERT fibroblasts, dose response, cell-based, RAS-independent, luminescence (AID 1933); type: functional; conditions: Homo sapiens
[17] = AlphaScreen signal interference compounds, dose response, artefact control for ARNT-TACC3 interaction inhibitor project, biochemical, luminescence, cherry-pick (AID 651705); type: functional;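 also: AlphaScreen bead proximity signal that flags compounds interfering with the detection technology; potency reflects signal decrease which marks the compound as an assay artifact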
[18] = cytotoxicity toward DRD oncogenic fibroblasts, dose response, cell-based, non-viral oncogenic, luminescence (AID 1934); type: functional; conditions: Homo sapiens
[19] = cytotoxicity in MIN6 insulinoma cells, dose response, cytotoxicity control, cell-based, mouse insulinoma (AID 2122); type: functional;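 also: confirmatory high-throughput counterscreen run to flag cytotoxic compounds; mouse MIN-6 beta cells carrying an insulin promoter eGFP reporter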
[20] = insulin promoter down-regulators in MIN6 cells, imaging, high-content screening, mouse beta cells (AID 1628); type: functional
[21] = Luminescent dose response cell-based high throughput screening assay for inhibitors of the Janus kinase 2 mutant JAK2V617F. [Related pubchem assays: 1446 (Primary screen.), 1521 (Confirmation assay.), 1486 (Counter screen.)]; type: functional
HEK293 = test: inhibitors of LMP1-driven NF-kB reporter, dose response, cell-based, HEK293, luciferase, cherry-pick (AID 588343); type: functional; conditions: Homo sapiens
[22] = target: Serine/threonine-protein phosphatase PP1-alpha catalytic subunit (Homo sapiens, UniProt P62136); test: PP1 phosphatase inhibitors, dose response, biochemical, fluorescence (AID 2403);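 also: phosphatase turnover of OMFP into fluorescent 3-O-methylfluorescein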
Chain of Serine/threonine-protein phosphatase PP1-alpha catalytic subunit (P62136 whole entry): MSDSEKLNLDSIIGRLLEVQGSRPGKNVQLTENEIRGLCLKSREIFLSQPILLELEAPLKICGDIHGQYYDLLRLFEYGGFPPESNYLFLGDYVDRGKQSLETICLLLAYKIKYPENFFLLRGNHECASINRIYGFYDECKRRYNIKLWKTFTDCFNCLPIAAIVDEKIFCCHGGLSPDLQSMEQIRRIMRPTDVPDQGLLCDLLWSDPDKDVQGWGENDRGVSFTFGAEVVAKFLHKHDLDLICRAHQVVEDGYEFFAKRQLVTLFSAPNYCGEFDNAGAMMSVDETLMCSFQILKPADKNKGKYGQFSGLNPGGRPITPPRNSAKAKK

Streptococcus = test: Group A Streptococcus viability loss, dose response, counter-screen for streptokinase expression inhibitor project, luminescence, BacTiterGlo (AID 1915); type: functional, organism-based;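 also: potency for reduction of bacterial viability or growth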
BJ [23] = test: cytotoxicity toward BJ-TERT-LT-ST fibroblasts, dose response, cell-based, RAS-independent, luminescence (AID 1935); type: functional; conditions: Homo sapiens;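 also: BJ fibroblasts immortalized with TERT plus LT and ST oncogenes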
[24] = target: T5, Serine/threonine-protein phosphatase (Homo sapiens, UniProt Q9BPW0); test: Counterscreen for inhibitors of PP1: fluorescence-based biochemical high throughput dose response assay to identify inhibitors of Protein Phosphatase 5 (PP5). [Related pubchem assays: 2034 (Summary (PP5 inhibitors)), 1987 (PP5 inhibitors in singlate), 2235 (PP1 inhibitors in singlate)]
T5 sequence (Q9BPW0 whole entry): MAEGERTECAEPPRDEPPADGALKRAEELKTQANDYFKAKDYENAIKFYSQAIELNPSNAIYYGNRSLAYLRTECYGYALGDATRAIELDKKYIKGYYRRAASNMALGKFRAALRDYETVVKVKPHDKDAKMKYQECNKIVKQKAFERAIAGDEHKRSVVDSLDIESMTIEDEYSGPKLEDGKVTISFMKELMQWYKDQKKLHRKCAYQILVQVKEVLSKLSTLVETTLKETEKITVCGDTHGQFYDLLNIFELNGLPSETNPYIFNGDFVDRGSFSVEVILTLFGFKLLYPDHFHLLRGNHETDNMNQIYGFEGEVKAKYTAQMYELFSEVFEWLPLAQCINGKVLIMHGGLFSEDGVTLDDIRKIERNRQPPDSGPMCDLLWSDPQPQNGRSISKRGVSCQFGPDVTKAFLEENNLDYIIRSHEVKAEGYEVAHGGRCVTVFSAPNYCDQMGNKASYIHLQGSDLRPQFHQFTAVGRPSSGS

BJ [25] = test: cells; type: functional, cell-based; conditions: Homo sapiens
INS1 = test: beta cell apoptosis inhibitors, cytokine rescue, dose response, luminescence, retest (AID 449756); type: functional, cell-based; conditions: Rattus norvegicus;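 also: cell death triggered by IL-1 beta plus TNF-alpha plus IFN-gamma mixture; protective hits raise ATP signal compared with cytokine alone wells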
Cytochrome P450 2D6 = Cytochrome P450 2D6 (Homo sapiens, UniProt P10635); test: qHTS Assay for Inhibitors and Substrates of Cytochrome P450 2D6. [Related pubchem assays: 410 ]; type: ADME; conditions: read-out: Potency
[26] = target: G2/mitotic-specific cyclin-B1 (Homo sapiens, UniProt P14635); test: Counterscreen assay for inhibitors of Wee1 degradation: dose response cell-based assay to identify inhibitors of cyclin B degradation. [Related pubchem assays: 1410, 1321 ]; type: functional
Chain of G2/mitotic-specific cyclin-B1 (P14635 whole entry): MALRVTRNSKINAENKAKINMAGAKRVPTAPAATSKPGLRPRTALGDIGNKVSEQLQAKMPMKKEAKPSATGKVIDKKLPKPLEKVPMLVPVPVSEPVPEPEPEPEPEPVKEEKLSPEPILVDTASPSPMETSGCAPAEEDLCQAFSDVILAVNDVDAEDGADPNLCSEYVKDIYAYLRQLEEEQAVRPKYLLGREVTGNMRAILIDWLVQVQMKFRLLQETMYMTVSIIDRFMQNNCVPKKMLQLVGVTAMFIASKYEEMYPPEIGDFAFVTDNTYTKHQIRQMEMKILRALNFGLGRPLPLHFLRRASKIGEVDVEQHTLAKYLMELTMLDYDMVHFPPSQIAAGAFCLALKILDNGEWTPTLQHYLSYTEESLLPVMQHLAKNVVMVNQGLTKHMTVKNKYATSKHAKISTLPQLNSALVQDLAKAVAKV

Streptokinase A = target: T6, Streptokinase A (Streptococcus pyogenes serotype M1, UniProt P10520); test: S. pyogenes streptokinase expression inhibitors, potency, dose response, plasminogen activation absorbance, OD405 (AID 1914); type: functional, Streptococcus pyogenes M1 GAS;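 also: secreted streptokinase activity via plasminogen activation per viability signal from cell pellet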
T6 sequence (P10520 whole entry): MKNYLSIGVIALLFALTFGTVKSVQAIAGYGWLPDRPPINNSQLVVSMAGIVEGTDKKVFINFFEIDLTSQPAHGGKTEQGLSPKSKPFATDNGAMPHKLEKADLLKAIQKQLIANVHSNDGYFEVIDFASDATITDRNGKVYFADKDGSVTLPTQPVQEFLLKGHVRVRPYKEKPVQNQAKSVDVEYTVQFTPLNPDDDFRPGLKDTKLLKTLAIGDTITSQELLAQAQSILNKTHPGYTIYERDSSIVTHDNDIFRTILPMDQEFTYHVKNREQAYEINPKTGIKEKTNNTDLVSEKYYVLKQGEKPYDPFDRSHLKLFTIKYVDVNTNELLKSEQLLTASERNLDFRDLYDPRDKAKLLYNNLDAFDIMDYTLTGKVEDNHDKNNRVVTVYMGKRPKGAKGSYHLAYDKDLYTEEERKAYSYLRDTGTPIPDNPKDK

Wee1-like protein kinase = Wee1-like protein kinase (Homo sapiens, UniProt P30291); test: Dose Response Cell-based Assay for Inhibitors of Wee1 Degradation. [Related pubchem assays: 1410, 1321 ]; type: functional
Chain of Wee1-like protein kinase (P30291 whole entry): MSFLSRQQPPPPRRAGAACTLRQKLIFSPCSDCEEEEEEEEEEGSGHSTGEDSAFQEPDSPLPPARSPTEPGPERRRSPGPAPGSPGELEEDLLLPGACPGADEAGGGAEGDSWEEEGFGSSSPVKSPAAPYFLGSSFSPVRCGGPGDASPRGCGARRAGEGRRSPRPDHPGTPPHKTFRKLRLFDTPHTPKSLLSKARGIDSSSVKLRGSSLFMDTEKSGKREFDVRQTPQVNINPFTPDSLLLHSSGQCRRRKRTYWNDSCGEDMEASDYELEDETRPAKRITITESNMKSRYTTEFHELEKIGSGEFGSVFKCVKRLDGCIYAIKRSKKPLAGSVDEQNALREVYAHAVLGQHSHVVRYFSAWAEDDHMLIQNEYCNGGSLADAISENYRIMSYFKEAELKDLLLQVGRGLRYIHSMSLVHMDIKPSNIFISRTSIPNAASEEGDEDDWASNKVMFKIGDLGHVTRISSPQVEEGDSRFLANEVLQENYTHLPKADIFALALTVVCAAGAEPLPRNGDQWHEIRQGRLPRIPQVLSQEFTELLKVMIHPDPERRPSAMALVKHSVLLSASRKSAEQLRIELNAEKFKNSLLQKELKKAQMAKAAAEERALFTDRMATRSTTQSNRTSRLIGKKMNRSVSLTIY

Chain of Melanin-concentrating hormone receptor 1 (Q99705 whole entry): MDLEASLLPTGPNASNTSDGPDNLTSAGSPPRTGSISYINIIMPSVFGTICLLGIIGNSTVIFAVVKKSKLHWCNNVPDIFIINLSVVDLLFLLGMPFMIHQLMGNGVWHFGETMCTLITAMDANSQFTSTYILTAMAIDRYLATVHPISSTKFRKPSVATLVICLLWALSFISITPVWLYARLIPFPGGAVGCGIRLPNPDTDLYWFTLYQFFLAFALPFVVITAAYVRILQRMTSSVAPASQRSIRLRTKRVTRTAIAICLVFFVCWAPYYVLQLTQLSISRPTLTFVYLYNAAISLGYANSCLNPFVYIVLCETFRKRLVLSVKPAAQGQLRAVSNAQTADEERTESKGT

CCOc1ccccc1NC(=O)C(NCC1(N2CCCCC2)CCCCC1)c1ccccc1 (stereo not drawn)
IC50 [1]: > 14.6 µM (not active)
IC50 [2]: 139 µM (active)
IC50 [3]: > 14.6 µM (not active)

Cc1ccn2cc(C(=O)Nc3nnc(C)s3)nc2c1
EC50 [4]: > 50 µM (active)
EC50 [5]: > 100 µM (not active)

CCN(CC)CCCN1C(=O)C(O)=C(C(=O)c2cc3ccccc3o2)C1c1ccccn1 (stereo not drawn)
IC50 [6]: 4.13 µM (active)
EC50 [7]: > 79.4 µM (not active)
EC50 [8]: 35.7 µM (not active)
IC50 [9]: > 39.8 µM (not active)
EC50 [10]: > 79.4 µM (inactive)

Cc1cc(NC(=O)c2cccs2)no1
IC50 [11]: > 100 µM (inactive)
IC50 [12]: > 100 µM (inactive)
IC50 [13]: 50.1 µM (active)
IC50 [14]: > 100 µM (not active)

c1ccc(CCNc2nc(-c3ccccn3)nc3ccccc23)cc1
EC50 [15]: 0.916 µM (active)
EC50 (BJ [16]): 3.18 µM (active)
AC50 [17]: 125 µM (active)
EC50 [18]: 15.9 µM (inconclusive)
IC50 [19]: 1.21 µM (active)
IC50 [20]: 1.96 µM (active)
IC50 [21]: 1.77 µM (active)
AC50 (HEK293): 1.24 µM (active)
IC50 [22]: 6.27 µM (active)
EC50 (Streptococcus): 2.33 µM (active)
EC50 (BJ [23]): 51.1 µM (inconclusive)
IC50 [24]: 49.3 µM (not active)
EC50 (BJ [25]): 28.9 µM (active)
AC50 (INS1): 1.63 µM (active)

COc1cccc2oc(-c3ccc(O)cc3)cc(=O)c12
AC50 (Cytochrome P450 2D6): 15.8 µM (inconclusive)

O=C(Nc1ccc(Cl)c(Cl)c1)Nc1nccs1
EC50 [15]: 8.23 µM (active)
EC50 (BJ [16]): 3.87 µM (active)
EC50 [18]: 3.33 µM (active)
EC50 [26]: > 49.7 µM (not active)
EC50 (Streptokinase A): > 150 µM (not active)
EC50 (Wee1-like protein kinase): > 49.7 µM (not active)
EC50 (Streptococcus): 15.4 µM (active)
EC50 (BJ [23]): 3.25 µM (inconclusive)
EC50 (BJ [25]): 46.2 µM (active)
